US12351583B2, “Triazolopyrimidines based on thymine nucleobase and methods for producing them” (TERA STONE CO., LTD, priority 2019, dated 2025)
Like-named read-outs stand apart in the source and are kept apart here.

How the values were obtained:
[1] = system: CCRF-HSB-2 cells (human acute lymphoblastic leukemia); test: MTT cell proliferation inhibition assay, CCRF-HSB-2 cells; type: cell-based; conditions: for IC50: MTT assay, cultured 3 days, probit analysis, read-out: Inhibitory concentration against tumor cell lines in vitro IC50, CCRF-HSB-2; for cell proliferation inhibitory activity compared with 5-FU, CCRF-HSB-2 cells: comparison of IC50 with control drug 5-FU
Procedure: (§1) Regarding the synthesized triazolopyrimidine compounds, their cell proliferation inhibitory activities, as an index of antitumor acttivity, were examined. The test was performed by MTT assay (T. Mosmann, J. Immunol. Methods, 65, 55 (1983); M. B. Hansen, S. E. Nielsen and K. Berg, J. Immunol. Methods, 119, 203 (1989), which are incorporated by reference in their entirety.), and the cancer cells tested were CCRF-HSB-2 cells (human acute lymphoblastic leukemia) and KB cells (human […]). Cytarabine (Ara-C, cytarabine: 4-amino-1-β-D-arabinofuranosyl-2(1H)-one) and 5-fluorouracil (5-FU, 5-fluorouracil) were used as control drugs, which are antimetabolite anticancer agents used for, for example, acute leukemia and/or gastrointestinal cancer.
(§2) Human acute lymphoblastic leukemia cells (T-cells) CCRF-HSB-2 and human nasopharyngeal carcinoma-derived KB cells were cultured in RPMI 1640 medium supplemented with 10% fetal bovine serum.
(§3) Test agents were dissolved in dimethyl sulfoxide to become a concentration of 10 mg/ml and stored at 4° C. These solutions were diluted with MEM-Hanks medium and used for the assay.
(§4) • 1. 50 μl of the agent solution or MEM-Hanks medium was pre-filled in a 96-well plate. • 2. Cells in the logarithmic growth phase were harvested, and suspension of the cells was prepared such that the cell density is 1×10^5 cells/ml (5,000 cells/50 μl/well) and the serum concentration is 20%. The suspension 50 μl was seeded to each well. The cells were cultured in a carbon dioxide incubator at 37° C. for 3 days. • 3. After completion of the culture, 10 μl of MTT solution*(5 mg/ml in PBS-) was added to each well, and the cells were further cultured at 37° C. for 4 hours in a carbon dioxide incubator. *MTT solution: 1 g of MTT (Sigma M-2128) was dissolved in 200 ml of PBS-under light shielding, and the solution was filtrated using a 0.45 μm filter, and then stored at 4° C. If insoluble components precipitated during storage, filtration was performed again. • 4. After completion of the culture, 100 μl of 0.02 N HCl/50% N,N-dimethylformamide/20% SDS was added and stirred in each well to dissolve produced formazan. Its absorbance at 570 nm (test wavelength) and 690 nm (reference wavelength) was measured by a microplate reader (Tosoh MPR4Ai) and the proliferation inhibition rate was determined by the following formula. Inhibition rate (%)=(1−Tx/Cx)×100
(§5) Tx: Absorbance of wells containing sample
(§6) Cx: Absorbance of wells containing no sample (control) • 5. Inhibitory concentration showing 50% inhibition (IC50) of samples were determined by probit analysis using a computer software. [Evaluation]

[2] = system: KB cells (human nasopharyngeal carcinoma-derived); test: MTT cell proliferation inhibition assay, KB cells; type: cell-based; conditions: for IC50: MTT assay, cultured 3 days, probit analysis, read-out: Inhibitory concentration against tumor cell lines in vitro IC50, KB; for cell proliferation inhibitory activity compared with 5-FU, KB cells: comparison of IC50 with control drug 5-FU
Procedure: as §1, §2, §3, §4, §5, §6

Compound | IC50 [1] [µM] | IC50 [2] [µM] | further results
Cc1c[nH]c(=O)n2nc(-c3ccccc3)nc12 [Compound 5b] | 48.6 | 57.1 | –
Nc1ccn([C@@H]2O[C@H](CO)[C@@H](O)[C@@H]2O)c(=O)n1 [AraC, 4-amino-1-β-D-arabinofuranosyl-2(1H)-one, reference compound] | – | – | IC50 ([1]; Homo sapiens, 72 h): 0.021 µM; IC50 ([2]; Homo sapiens, 72 h): 0.12 µM
N#Cc1ccc(-c2nc3c(F)c[nH]c(=O)n3n2)cc1 [Compound 9g] | 41.3 | 43.8 | –
Cc1c[nH]c(=O)n2nc(-c3cccnc3)nc12 [Compound 5p] | 59.4 | 77.5 | –
CCc1nnc2c(C)c[nH]c(=O)n12 [Compound 4a] | 78 | 82 | –
Cc1cnc(Cl)n2nc(-c3ccc(C#N)cc3)nc12 [Compound 6m] | – | – | cell proliferation inhibitory activity compared with 5-FU, CCRF-HSB-2 cells [1]: stronger cell proliferation inhibitory activity than 5-FU
O=c1[nH]cc(F)c2nc(-c3ccc(Cl)c(Cl)c3)nn12 [Compound 9e] | 23.6 | 28.9 | –
COc1cc(OC)c(-c2nc3c(C)c[nH]c(=O)n3n2)c(OC)c1 [Compound 5e] | > 100 | > 100 | –
Cc1c[nH]c(=O)n2nc(-c3ccc(C(=O)O)cc3)nc12 [Compound 5n] | > 100 | > 100 | –
O=c1[nH]cc(F)c(=O)[nH]1 [Compound 5-FU, 5-fluorouracil, reference compound] | – | – | IC50 ([1]; Homo sapiens, 72 h): 2.74 µM; IC50 ([2]; Homo sapiens, 72 h): 2.24 µM
COc1ccc(-c2nc3c(C)c[nH]c(=O)n3n2)cc1 [Compound 5d] | > 100 | > 100 | –
O=c1[nH]cc(F)c2nc(-c3ccccc3)nn12 [Compound 9d] | 22.3 | 39 | –
Cc1ccc(-c2nc3c(C)c[nH]c(=O)n3n2)cc1 [Compound 5c] | 63.1 | 42.9 | –
Cc1c[nH]c(=O)n2nc(-c3ccccc3F)nc12 [Compound 5g] | 48.8 | 62.4 | –
Cc1c[nH]c(=O)n2nc(-c3ccccc3Br)nc12 [Compound 5k] | 74.5 | 92.9 | –
CCc1nc2c(F)c[nH]c(=O)n2n1 [Compound 9c] | 58.2 | 48.5 | –
Cc1c[nH]c(=O)n2nc(-c3ccc(F)cc3)nc12 [Compound 5h] | 55.5 | 62.4 | –
Cc1c[nH]c(=O)n2nc(-c3ccncc3)nc12 [Compound 5q] | 28.7 | 42.1 | –
Cc1cnc(Cl)n2nc(-c3ccc([N+](=O)[O-])cc3)nc12 [Compound 6f] | – | – | cell proliferation inhibitory activity compared with 5-FU, CCRF-HSB-2 cells [1]: stronger cell proliferation inhibitory activity than 5-FU; cell proliferation inhibitory activity compared with 5-FU, KB cells [2]: stronger cell proliferation inhibitory activity than 5-FU
Cc1c[nH]c(=O)nc1NN=Cc1ccccc1 [Compound 3b] | > 100 | > 100 | –
Cc1c[nH]c(=O)n2nc(-c3ccc(Cl)c(Cl)c3)nc12 [Compound 5j] | 15.2 | 13.4 | –
Cc1c[nH]c(=O)n2nc(-c3ccc(C#N)cc3)nc12 [Compound 5m] | > 100 | 23.7 | –
Cc1cnc(Cl)n2nc(-c3ccc(Cl)c(Cl)c3)nc12 [Compound 6j] | – | – | cell proliferation inhibitory activity compared with 5-FU, CCRF-HSB-2 cells [1]: stronger cell proliferation inhibitory activity than 5-FU
Cc1c[nH]c(=O)n2c(-c3ccccc3)nnc12 [Compound 4b] | > 100 | > 100 | –
Cc1c[nH]c(=O)n2nc(-c3ccc4ccccc4c3)nc12 [Compound 5r] | 99.1 | > 100 | –
Cc1cnc(Cl)n2nc(-c3ccccc3)nc12 [Compound 6b] | – | – | cell proliferation inhibitory activity compared with 5-FU, CCRF-HSB-2 cells [1]: stronger cell proliferation inhibitory activity than 5-FU
Cc1c[nH]c(=O)n2nc(-c3ccc(Cl)cc3)nc12 [Compound 5i] | 41.8 | 50 | –
O=c1[nH]cc(F)c2nc(-c3ccc(Br)cc3)nn12 [Compound 9f] | 31.5 | 28.5 | –
Cc1c[nH]c(=O)n2nc(-c3ccc([N+](=O)[O-])cc3)nc12 [Compound 5f] | 71.6 | 1.85 | cell proliferation inhibitory activity compared with 5-FU, KB cells [2]: stronger cell proliferation inhibitory activity than 5-FU
